Experimental data: patent US7643943B2, “Methods for monitoring drug activities in vivo” (Wyeth LLC, priority 2003, dated 2010)

Experiment: Pharmacodynamic correlation of drug exposure metrics to severity and duration of adverse events
Format: in vivo, human
Method: For the cumulative dose drug exposure, cumulative AUCsum was determined. Each patients' specific dosing history while on trial medication was determined and used to derive respective AUCs experienced by each patient for the duration of time from start of treatment to time of highest severity adverse event. This test included all the data, irrespective of AE severity, and was analyzed using the asymptotic Mantel-Haenszel Test for Ordinal Association. A severity score of “1” indicating the lowest severity and “3” indicating the highest severity was used. […] Pharmacokinetic parameters were grouped into low, medium and high categories with an equal number of patients in each category. […] Estimation of cumulative exposure was determined for each patient as described above. Duration of an AE was determined by calculating the time interval for which a given patient experienced a given AE. […] The correlations between AE duration and the continuous pharmacokinetic variables were calculated using Spearman rank correlation test (SAS Institute Inc., SAS® […] REFERENCE, Version 8, Cary, N C: SAS Institute Inc., 1999). […] Results of the pharmacodynamic analysis using AUCsum (discrete predictor), cumulative AUCsum (cumulative predictor variable), Ceoi (peak exposure predictor) are shown in Table 12 as derived from 49 differing adverse events recorded for those patients included in the population analysis. […] Cumulative AUCsum refers to aggregate AUCsum based on individual patient dosing history. Ceoi is the CCI-779 concentration observed at end of infusion.

SMILES: CO[C@H]1C[C@@H]2CC[C@@H](C)[C@@](O)(O2)C(=O)C(=O)N2CCCC[C@H]2C(=O)O[C@H]([C@H](C)C[C@@H]2CC[C@@H](OC(=O)C(C)(CO)CO)[C@H](OC)C2)CC(=O)[C@H](C)/C=C(\C)[C@@H](O)[C@@H](OC)C(=O)[C@H](C)C[C@H](C)/C=C/C=C/C=C/1C [CCI-779]
- Spearman correlation to Ceoi: duration of Pain abdomen (N patients 13, P-value 0.01): 0.01 (0.873)
- Correlation to Ceoi: severity of Myalgia (N patients 13, P-value 0.013, Ceoi = CCI-779 concentration at end of infusion): 0.013 (0.414)
- Correlation to Ceoi: severity of Fever (N patients 17, P-value 0.022): 0.022 (0.402)
- Spearman correlation to Ceoi: duration of Fever (N patients 17, P-value 0.04): 0.04 (−0.626)
- Spearman correlation to Ceoi: duration of Anorexia (N patients 22, P-value 0.015): 0.015 (0.597)
